According to patent US6153591A, “Dipeptide caspase inhibitors and the use thereof” (Cytovia, Inc., priority 1999, dated 2000):
Square brackets hold non-standard residues; d marks the D form. Peptide text beside a SMILES is read from it. * marks the point of attachment. ξ: configuration not given here. 1Nal = N[C@@H](Cc1cccc2ccccc12)C(=O)O; ξPhg = NC(C(=O)O)c1ccccc1; Cbz = O=C(OCc1ccccc1)*; CH2F = FC*

Experiments:
caspase-3 (CPP32) = target: T1, caspase-3 (CPP32) (Homo sapiens, UniProt P42574); assay: Fluorometric enzyme assay of caspase-3 inhibition; type: biochemical; conditions: recombinant caspase-3, substrate Asp-Glu-Val-Asp-AMC 5 μM, 30° C., 30 minutes
T1 construct: made in house; host or cells: Sf9 insect cells, baculovirus vector
T1 sequence (P42574 29-175 limits assumed): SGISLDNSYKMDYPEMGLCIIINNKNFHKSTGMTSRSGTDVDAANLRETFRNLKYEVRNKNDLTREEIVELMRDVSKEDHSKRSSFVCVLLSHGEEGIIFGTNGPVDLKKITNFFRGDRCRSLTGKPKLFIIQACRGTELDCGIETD
T1 sequence (P42574 176-277 limits assumed): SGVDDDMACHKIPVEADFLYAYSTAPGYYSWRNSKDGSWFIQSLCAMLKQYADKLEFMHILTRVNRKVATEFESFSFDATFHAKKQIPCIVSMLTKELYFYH
Method: The activity of Cbz-Phg-Asp-fmk as an inhibitor of caspase-3 (CPP32) was measured in a fluorometric enzyme assay. Recombinant caspase-3 protein was prepared by expressing DNA clones encoding these enzymes in an insect host cell (sf9 cells) using baculovirus as the vector. See, Webb, N.R. et al., "Expression of proteins using recombinant Baculovirus," Techniques 2:173-188 (1990). Enzyme activity was measured using synthetic peptide substrates attached to a fluorogenic leaving group. Cleavage of the synthetic substrate by the enzyme results in a fluorescent signal which is read in a spectrofluorometer or in a fluorometric microtiter plate reader.
Caspase-3 activity was measured using the following buffer conditions: 100 mM HEPES pH 7.5, with 10% sucrose, 1% CHAPS. The peptide substrate for caspase-3 is Asp-Glu-Val-Asp-AMC (SEQ ID NO:2). […] The assay for enzyme activity was typically carried out at 30° C. for 30 minutes.

[1] = test system: lethality in mice caused by an anti-Fas antibody (clone Jo2); assay: Protection against lethality in mice caused by anti-Fas antibody (clone Jo2); type: in vivo; conditions: Swiss Webster female mice, 6 μg Fas antibody
Method: Cbz-Phg-Asp-fmk was examined as a protectant against lethality in mice caused by an anti-Fas antibody (clone Jo2) (Rodriguez, I. et al J. Exp. Med 184:2067-2072 (1996). Swiss Webster female mice weighing between 16-20 g were used. Food and water were given ad libium. Purified hamster anti-mouse Fas monoclonal antibody (clone Jo2, commercially available) 1 mg/ml in phosphate buffered saline was dosed i.v. at 6 μg/mouse (80 μl).
Cbz-Phg-Asp-fmk was dissolved in 0.05M Tris base adjusted to pH 8.5 with HCl. The concentration of Cbz-Phg-Asp-fmk was 1-10 mg/ml dosed as a single bolus i.v. in a volume of 1-5 μl/g body weight. Five groups of mice were injected with 6 μg of Fas antibody per mouse. 5 minutes following the antibody injection the mice received either Tris vehicle control or 1, 2.5, 10 or 50 mg/kg of Cbz-Phg-Asp-fmk. The survival of the mice was followed throughout 24 hours.

Row | IC50 (caspase-3 (CPP32)) [nM] | Compound | other results
1 | 270 | O=C(O)CC(NC(=O)C(NC(=O)OCc1ccccc1)c1ccc(Cl)cc1)C(=O)CF (stereo not shown) [Z-(4-Cl--Phg)--Asp--fmk, Z-(4-Cl-Phg)-Asp-fmk] | –
2 | 1000 | O=C(O)CC(NC(=O)C(CCl)NC(=O)OCc1ccccc1)C(=O)CF (stereo not shown) [Z-[(L)-3-Cl--Ala]--Asp--fmk, Z-[(L)-3-Cl-Ala]-Asp-fmk] | –
3 | 1000 | O=C(O)C[C@H](NC(=O)[C@H](Cc1cccc2ccccc12)NC(=O)OCc1ccccc1)C(=O)CF [Z-[(L)-1-Nal]--Asp--fmk, Z-[(L)-1-Nal]-Asp-fmk] (Cbz-[1Nal]-Asp-CH2F) | –
4 | 1200 | O=C(O)CC(NC(=O)C(NC(=O)OCc1ccccc1)c1ccc(F)cc1)C(=O)CF (stereo not shown) [Z-(4-F-Phg)--Asp--fmk, Z-(4-F-Phg)-Asp-fmk] | –
5 | 260 | O=C(O)CC(NC(=O)C(NC(=O)OCc1ccccc1)c1ccsc1)C(=O)CF (stereo not shown) [Z-[(L)-3-Thg]--Asp--fmk] [Z-[(L)-3-Thg]-Asp-fmk] | –
6 | 600 | CC(C(NC(=O)OCc1ccccc1)C(=O)NC(CC(=O)O)C(=O)CF)C(F)(F)F (stereo not shown) [Z--(F3 --Val)--Asp--fmk, Z-(F3 -Val)-Asp-fmk] | –
7 | 510 | O=C(O)CC(NC(=O)C(NC(=O)OCc1ccccc1)c1cccs1)C(=O)CF (stereo not shown) [Z-[(L)-2-Thg]--Asp--fmk, Z-[(L)-2-Thg]-Asp-fmk] | –
8 | 530 | N#CCC(NC(=O)OCc1ccccc1)C(=O)NC(CC(=O)O)C(=O)CF (stereo not shown) [Z-[(L)-3-CN--Ala]--Asp--fmk, Z-[(L)-3-CN-Ala]-Asp-fmk] | –

Continued, compound first:

Row | Compound | IC50 (caspase-3 (CPP32)) [nM] | other results
9 | Z-[3-F-3-Me-Ala]-Asp-fmk [Z-(3-F-3-Me--Ala)--Asp--fmk] | 480 | –
10 | CC(C)C(CNC(=O)OCc1ccccc1)C(=O)N[C@@H](CC(=O)O)C(=O)CF (stereo partly drawn) [Z-(2-i-Pr-- --Ala)--Asp--fmk, Z-(2-i-Pr-β-Ala)-Asp-fmk] | 1400 | –
11 | O=C(O)C[C@H](NC(=O)C(NC(=O)OCc1ccccc1)c1cccs1)C(=O)CF (stereo partly shown) [Z-(2-Thg)--Asp--fmk, Z-(2-Thg)-Asp-fmk] | 280 | –
12 | O=C(O)C[C@H](NC(=O)CC(NC(=O)OCc1ccccc1)c1ccccc1)C(=O)CF (stereo partly drawn) [Z-(3-Ph-- --Ala)--Asp--fmk, Z-(3-Ph-β-Ala)-Asp-fmk] | 4700 | –
13 | CC(C)(F)[C@H](NC(=O)OCc1ccccc1)C(=O)N[C@@H](CC(=O)O)C(=O)CF [Z-(3-F-Val)--Asp--fmk, Z-(3-F-Val)-Asp-fmk] | 440 | –
14 | O=C(O)C[C@H](NC(=O)C(NC(=O)OCc1ccccc1)c1ccccc1)C(=O)CF (stereo partly drawn) [Cbz-Phg-Asp-fmk] (Cbz-[ξPhg]-Asp-CH2F) | – | Percent survival ([1]; 1 mg/kg i.v., 1 h): 100%; Percent survival ([1]; 1 mg/kg i.v., 3 h): 14.3%; Percent survival ([1]; 1 mg/kg i.v., 24 h): 0%; Percent survival ([1]; 2.5 mg/kg i.v., 1 h): 100%; Percent survival ([1]; 2.5 mg/kg i.v., 3 h): 28.6%; Percent survival ([1]; 2.5 mg/kg i.v., 24 h): 0%; Percent survival ([1]; 10 mg/kg i.v., 1 h): 100%; Percent survival ([1]; 10 mg/kg i.v., 3 h): 42.9%; Percent survival ([1]; 10 mg/kg i.v., 24 h): 14.3%; Percent survival ([1]; 50 mg/kg i.v., 1 h): 100%; Percent survival ([1]; 50 mg/kg i.v., 3 h): 100%; Percent survival ([1]; 50 mg/kg i.v., 24 h): 42.9%
15 | O=C(O)CC(NC(=O)C(NC(=O)OCc1ccccc1)c1ccsc1)C(=O)CF (stereo not shown) [Z-(3-Thg)--Asp--fmk, Z-(3-Thg)-Asp-fmk] | 340 | –
16 | O=C(O)CC(NC(=O)C(NC(=O)OCc1ccccc1)c1ccco1)C(=O)CF (stereo not shown) [Z-(2-Fug)--Asp--fmk, Z-(2-Fug)-Asp-fmk] | 440 | –
17 | O=C(O)CC(NC(=O)C(NC(=O)OCc1ccccc1)c1ccccc1F)C(=O)CF (stereo not shown) [Z-(2-F--Phg)--Asp--fmk, Z-(2-F-Phg)-Asp-fmk] | 360 | –
18 | O=C(O)CC(NC(=O)C(CF)NC(=O)OCc1ccccc1)C(=O)CF (stereo not shown) [Z-(3-F-Ala)--Asp--fmk, Z-(3-F-Ala)-Asp-fmk] | 900 | –
19 | CN(C)CC(NC(=O)OCc1ccccc1)C(=O)NC(CC(=O)O)C(=O)CF (stereo not shown) [Z-(3-Me2 N--Ala]--Asp--fmk, Z-(3-Me2 N-Ala)-Asp-fmk] | 9600 | –
20 | O=C(O)CC(NC(=O)C(NC(=O)OCc1ccccc1)c1ccc(C(F)(F)F)cc1)C(=O)CF (stereo not shown) [Z-(4-CF3 --Phg)--Asp--fmk, Z-(4-CF3 -Phg)-Asp-fmk] | 1200 | –
